# “Also recorded” adds a separate entry of the source.
# How the values were obtained:
# C2C12 mouse myoblasts = assay: Mitochondrial membrane potential by relative JC-1 fluorescence; format: cell-based; conditions: C2C12 cells, 24 h; for Increase in mitochondrial membrane potential: vs. control
# Excerpt: The objective of the experiment was to investigate whether and how mitochondrial energy production in myoblasts is affected by hydroxytyrosol alone or in combination with other compounds. For energy production, the mitochondrial electron transport chain generates a proton gradient across the […], creating a membrane potential that powers the synthesis of ATP by the ATP synthase complex. […] If a critical concentration is reached, JC-1 forms aggregates, which changes its fluorescence properties from green to red fluorescence. […] An increased mitochondrial membrane potential indicates an improved energetic state and increased capability to generate ATP and provide energy for other cellular components. […] C2C12 cells were seeded into a 96-well cell culture plate at 1000 cells/well and cultured in growth medium (Dulbecco's modified eagle medium (DMEM) supplemented with 10% fetal bovine serum) in a standard incubator (humidified, 37° C., 5% CO2) for 24 h. […] […] After 24 h of treatment, cells were incubated with medium containing JC-1 (2 ug/ml) for 30 min at 37° C., then the staining solution was removed, DMEM without phenol red was added, and green fluorescence (ex 485 nm/em 538 nm) and red fluorescence (ex 544 nm/em 590 nm) was measured using a fluorescence plate reader (SpectraMax M5). The ratio of red to green fluorescence in each well was determined and the average and standard deviation of the quadruplicate treatments were calculated.
# [1] = system: mitochondrial electron transport complex I; assay: Mitochondrial complex I protein expression in adipocytes (Western blot); format: cell-based, murine; conditions: 3T3-L1 adipocytes, 48 hrs, vs. control
# Method: (§1) Murine 3T3-L1 pre-adipocytes (American Type Culture Collection) were cultured in Dulbecco's Modified Eagle's Medium (DMEM) supplemented with 10% fetal bovine serum and allowed to reach confluence. Differentiation of pre-adipocytes was initiated with 1 μM insulin, 0.25 μM dexamethasone and 0.5 mM 3-isobutyl-1-methylxanthine in DMEM, supplemented with 10% fetal bovine serum. After 48 h, the culture medium was replaced with DMEM supplemented with 10% fetal bovine serum and 1 μM insulin. The culture medium was changed every other day with DMEM containing 10% fetal bovine serum. […] After treatment, cells were washed twice with ice-cold PBS, lysed in sample buffer (62.5 mM Tris-Cl pH 6.8, 2% SDS, 5 mM DTT) at room temperature and vortexed. Cell lysates were then boiled for 5 minutes and cleared by centrifugation (13,000 rpm, 10 minutes at 4° C.). Protein concentration was determined using the Bio-Rad DC protein assay. The soluble lysates (10 μg per lane) were subjected to 10% SDS-PAGE, proteins were then transferred to nitrocellulose membranes and blocked with 5% non-fat milk/TBST for 1 h at room temperature. Membranes were incubated with primary antibodies directed against PPAR-γ (1:1000), PGC-1α (1:1000), α-tubulin (1:10 000), Complex I (1:2000), Complex II (1:2000), Complex III (1:2000) and Complex V (1:2000) in 5% milk/TBST at 4° C. overnight. After washing membranes with TBST three times, membranes were incubated with horseradish peroxidase-conjugated secondary antibody for 1 h at room temperature. Western blots were developed using ECL (Roche Manheim, Germany) and quantified by scanning densitometry.
# PGC-1α = PGC-1α protein level in adipocytes (Western blot, densitometry); format: cell-based, murine; conditions: 3T3-L1 adipocytes; hydroxytyrosol 1.0 μM; vs. control
# Method: as §1, with “Membranes were incubated with primary antibodies directed against PPAR-γ (1:1000), PGC-1α (1:1000), α-tubulin (1:10 000), Complex I (1:2000), Complex II (1:2000), Complex III (1:2000) and Complex V (1:2000) in 5% milk/TBST at 4° C. overnight. After washing membranes with TBST three times, membranes were incubated with horseradish peroxidase-conjugated secondary antibody for 1 h at room temperature.” left out
smiles,measurement,setting,value
"Cn1c(=O)c2c(ncn2C)n(C)c1=O [Caffeine, caffeine]",Effect on mitochondrial membrane potential (red/green JC-1 fluorescence ratio),C2C12 mouse myoblasts; 200 uM alone,no significant effect
same,Increase in mitochondrial membrane potential,C2C12 mouse myoblasts; 200 μM alone,−4%
"NC(=O)c1ncn([C@@H]2O[C@H](CO)[C@@H](O)[C@H]2O)c1N [AICAR, aminoimidazole carboxamide ribonucleotide]",Effect on mitochondrial membrane potential (red/green JC-1 fluorescence ratio),C2C12 mouse myoblasts; 500 uM,increase in mitochondrial potential; also recorded: increase mitochondrial membrane potential
same,Increase in mitochondrial membrane potential,C2C12 mouse myoblasts; 500 μM,16%
C[N+](C)(C)C[C@H](O)CC(=O)[O-] [L-carnithine],Effect on mitochondrial membrane potential (red/green JC-1 fluorescence ratio),C2C12 mouse myoblasts; 200 uM alone,no significant effect
same,Increase in mitochondrial membrane potential,C2C12 mouse myoblasts; 200 μM alone,0%
"OCCc1ccc(O)c(O)c1 [Hydroxytyrosol, 3,4-dihydroxyphenylethanol]",Mitochondrial electron transport complex I protein,[1]; 0.1 μM,131±16%
same,Mitochondrial electron transport complex I protein,[1]; 1.0 μM,163±31%
same,Mitochondrial electron transport complex I protein,[1]; 10.0 μM,138±21%
same,Effect on mitochondrial membrane potential (red/green JC-1 fluorescence ratio),C2C12 mouse myoblasts; 1 uM,no significant effect
same,Increase in mitochondrial membrane potential,C2C12 mouse myoblasts; 1 μM,1%
same,Increase in mitochondrial membrane potential,C2C12 mouse myoblasts; 10 μM,11%
same,"PGC-1α protein expression (PGC-1α:α-tubulin ratio), maximum",PGC-1α,205±52%

# From patent US9446006B2, “Hydroxytyrosol combinations for enhancing mitochondrial function and energy production” (DSM IP ASSETS B.V., priority 2009, dated 2016)
